Measured values reported in patent US20170247465A1, “COMBINATION THERAPY FOR TREATMENT OF CANCER” (OncoMed Pharmaceuticals, Inc., priority 2014, published 2017).

System: OMP-OV38 tumors
Test: Histology of treated OMP-OV38 tumors
Assay type: in vivo, NOD/SCID mice
Conditions: paclitaxel alone; data not shown
Description: The treated OMP-OV38 tumors were analyzed by histology.

Compound: CC(=O)O[C@H]1C(=O)[C@@]2(C)[C@H]([C@H](OC(=O)c3ccccc3)[C@]3(O)C[C@H](OC(=O)[C@H](O)[C@@H](NC(=O)c4ccccc4)c4ccccc4)C(C)=C1C3(C)C)[C@]1(OC(C)=O)CO[C@@H]1C[C@@H]2O [paclitaxel]
- histology of the tumors: did not show these effects
